Laboratory results reported in patent US11311540B2, “Increasing expression of interferon regulated genes with combinations of histone deacetylase inhibitors and immunomodulatory drugs” (ACETYLON PHARMACEUTICALS, INC., priority 2016, dated 2022).

How the values were obtained:
[1] = Body weight and tolerability in CB17-SCID mice; format: in vivo
Method: Mice carrying H929 tumor xenografts were treated with DMSO, Compound B (50 mg/kg IP QD), pomalidomide (1 mg/kg IP QD), or the combination of Compound B (50 mg/kg IP QD) and pomalidomide (1 mg/kg IP QD) daily for up to 42 days.

HDAC6 = biological target: T1, HDAC6 (Homo sapiens, UniProt Q9UBN7); test: HDAC6 selectivity over other HDACs; format: biochemical
T1 sequence (Q9UBN7 1-1215): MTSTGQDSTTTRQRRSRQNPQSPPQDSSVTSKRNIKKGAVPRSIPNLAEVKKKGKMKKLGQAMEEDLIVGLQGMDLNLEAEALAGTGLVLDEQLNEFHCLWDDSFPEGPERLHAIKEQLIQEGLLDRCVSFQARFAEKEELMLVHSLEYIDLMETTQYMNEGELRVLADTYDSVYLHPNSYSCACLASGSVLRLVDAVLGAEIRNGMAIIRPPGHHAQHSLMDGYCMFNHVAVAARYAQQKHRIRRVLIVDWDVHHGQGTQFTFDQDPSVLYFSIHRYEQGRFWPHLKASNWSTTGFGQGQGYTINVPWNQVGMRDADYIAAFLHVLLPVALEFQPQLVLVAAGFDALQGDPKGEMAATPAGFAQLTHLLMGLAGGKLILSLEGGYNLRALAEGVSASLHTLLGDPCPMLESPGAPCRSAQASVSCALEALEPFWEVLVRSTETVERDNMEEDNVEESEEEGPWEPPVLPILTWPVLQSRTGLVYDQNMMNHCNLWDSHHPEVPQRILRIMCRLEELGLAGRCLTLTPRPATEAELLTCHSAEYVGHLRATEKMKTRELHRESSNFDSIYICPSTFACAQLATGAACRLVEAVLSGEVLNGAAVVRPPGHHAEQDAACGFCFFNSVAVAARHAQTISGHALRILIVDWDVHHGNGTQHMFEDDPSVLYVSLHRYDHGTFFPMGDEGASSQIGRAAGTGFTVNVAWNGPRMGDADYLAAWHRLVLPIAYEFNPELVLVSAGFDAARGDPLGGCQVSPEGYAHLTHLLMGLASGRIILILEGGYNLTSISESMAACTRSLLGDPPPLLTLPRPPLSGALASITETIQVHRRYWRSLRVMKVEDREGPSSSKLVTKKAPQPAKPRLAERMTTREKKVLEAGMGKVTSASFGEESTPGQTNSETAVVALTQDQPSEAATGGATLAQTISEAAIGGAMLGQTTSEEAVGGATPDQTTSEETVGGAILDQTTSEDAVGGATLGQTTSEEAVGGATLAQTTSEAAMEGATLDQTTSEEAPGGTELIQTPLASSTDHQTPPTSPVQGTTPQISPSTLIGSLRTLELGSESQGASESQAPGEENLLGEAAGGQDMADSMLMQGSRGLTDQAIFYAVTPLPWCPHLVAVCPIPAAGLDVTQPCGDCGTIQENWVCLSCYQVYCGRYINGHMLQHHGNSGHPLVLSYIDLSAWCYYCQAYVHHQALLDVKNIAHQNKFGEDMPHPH
Text: The synthesis of the compounds of Formula I is provided in PCT/US2011/021982, which is incorporated herein by reference in its entirety. The synthesis of compounds of Formula II is provided in PCT/US2011/060791, which is incorporated herein by reference in its entirety. The synthesis of the compounds of Formula III is provided in U.S. Pat. Nos. 5,635,517; 6,281,230; 6,335,349; and 6,476,052; and in International Patent Application No. PCT/US97/013375, each of which is incorporated herein by reference in its entirety.

[2] = Phase I trials; cited from earlier work
BIRC5 = BIRC5 (survivin) gene expression (microarray probes); format: cell-based, human; settings: Compound A 2, 3, 4 μM, pomalidomide 1 μM; 24 and 48 hours
Method: (§1) The chip comprises a human gene expression array having more than 530,000 probes covering more than 36,000 transcripts and variants, which represent more than 20,000 genes mapped through RefSeq or via UniGene annotation. […] In the table, “A” indicates Compound A, and “Pom” indicates pomalidomide.
(§2) Finally, both effects were enhanced with time, though dose-dependence was less clear at 48 hours.

preclinical models of MM = settings: in vitro and in vivo; cited from earlier work
H929 cells = test: Apoptosis by flow cytometry (Annexin V / propidium iodide); format: cell-based; settings: 5 and 7 days, Compound A 2 μM, lenalidomide 2 μM, pomalidomide 1 μM
Method: Flow cytometry analysis was then used to measure the number of healthy and apoptotic cells under each treatment condition.
(§3) H929 (FIGS. 7A & 7B) or MM.1s (FIGS. 7C & 7D) myeloma cells were exposed to drug for 5 (FIGS. 7A & 7C) and 7 (FIGS. 7B & 7D) days, and apoptosis was assessed by flow cytometry by measuring Annexin V binding and cellular permeability to propidium iodide. The relative fraction of cells that were live, in early apoptosis, in late apoptosis, or dead was then determined.

MM.1s myeloma cells [3] = test: as above; format: cell-based; settings: 5 and 7 days, Compound A 2 μM, lenalidomide 2 μM, pomalidomide 1 μM
Method: as §3

CASP1 = CASP1 gene expression (microarray probes); format: cell-based, human; settings: Compound A 2, 3, 4 μM, pomalidomide 1 μM; 24 and 48 hours
Method: as §1, §2

XAF1 = XAF1 gene expression (microarray probes); format: cell-based, human; settings: Compound A 2, 3, 4 μM, pomalidomide 1 μM; 24 hour and 48 hour
Text: as §1
(§4) Each bar in each group of bars per treatment represents individual transcript probes for measuring gene expression level. […] Finally, there also appeared to be independent time components for each transcript.

myc target genes = test: Gene Set Enrichment Analysis (GSEA) of microarray data; format: cell-based, human; settings: single agent vs. DMSO at 48 hours (pomalidomide 1 μM; Compound A 4 μM)
Method: (§5) The data acquired from Example 7 was analyzed using two approaches: (1) Gene Set Enrichment Analysis (GSEA), and in the (2) Library of Integrated Network-based Cellular Signatures (LINCS) database.
(§6) The goal of the GSEA was to identify gene sets that are enriched in combination treatment over single agent treatment. […] Relevant gene sets were those that were enriched in both queries in the same direction (increased or decreased). For this analysis, the “hallmark gene sets” was chosen as the database, which comprises coherently expressed signatures derived by aggregating many molecular signatures database (MSigDB) gene sets to represent well-defined biological states or processes.

[4] = system: interferon regulated genes; test: as above; format: cell-based, human; settings: single agent vs. DMSO at 48 hours (pomalidomide 1 μM; Compound A 4 μM)
Method: as §5, §6

α-tubulin = test: Acetylation of α-tubulin in H929 cells (immunoblot); format: cell-based
CCL4 = CCL4 gene expression (microarray probes); format: cell-based, human; settings: Compound A 2, 3, 4 μM, pomalidomide 1 μM; 24 hour and 48 hour
Text: as §1, §4

H929 myeloma cells = test: Cell cycle distribution by flow cytometry (propidium iodide); format: cell-based; settings: 3 and 5 days, Compound A 2 μM, lenalidomide 2 μM, pomalidomide 1 μM
Method: (§7) H929 (FIGS. 6A & 6B) or MM.1s (FIGS. 6C & 6D) myeloma cells were exposed to drug for 3 (FIGS. 6A & 6C) and 5 (FIGS. 6B & 6D) days and cell cycle distribution was assessed by flow cytometry via incorporation of propidium iodide. The relative fraction of cells in each stage of the cell cycle (G0/G1, S, and G2/M) as well as the fraction of dead cells (Sub G1) was then estimated.

MM.1s myeloma cells [5] = test: as above; format: cell-based; settings: 3 and 5 days, Compound A 2 μM, lenalidomide 2 μM, pomalidomide 1 μM
Method: as §7

H929 = test: Expression profiling with Affymetrix […] microarrays, number of differentially regulated genes; format: cell-based, human; settings: pomalidomide 1 μM
Text: as §1

Structure (SMILES) | tolerability, body weight [1] | BIRC5 expression (BIRC5) | CASP1 expression (CASP1) | XAF1 expression (XAF1) | Normalized Enrichment Score (NES), myc targets (myc target genes) | Normalized Enrichment Score (NES), interferon regulated genes [4] | CCL4 expression (CCL4) | other results
O=C(CCCCCCNC(=O)c1cnc(N(c2ccccc2)c2ccccc2Cl)nc1)NO [Compound B, 2-((2-chlorophenyl)(phenyl)amino)-N-(7-(hydroxyamino)-7-oxoheptyl)pyrimidine-5-carboxamide] | very well tolerated with no weight loss and no evidence of overt toxicity |  |  |  |  |  |  | 
O=C(NO)c1cnc(NC2(c3cccc(F)c3)CCCCC2)nc1 [Compound C, 2-((1-(3-fluorophenyl)cyclohexyl)amino)-N-hydroxypyrimidine-5-carboxamide] |  |  |  |  |  |  |  | selective for HDAC6 over class I HDACs (HDAC6): more than 300 fold
O=C(CCCCCCNC(=O)c1cnc(N(c2ccccc2)c2ccccc2)nc1)NO [Compound A, 2-(diphenylamino)-N-(7-(hydroxyamino)-7-oxoheptyl)pyrimidine-5-carboxamide] |  | consistent dose-dependent effect | consistent dose-dependent effect | consistent dose-dependent induction | −2.23 | 2.72 | consistent dose-dependent induction | safety and tolerability profile [2]: improved safety and tolerability profile; synergy with bortezomib (preclinical models of MM): synergizes in vitro and in vivo with bortezomib; apoptosis (H929 cells): small increase in apoptosis; apoptosis (MM.1s myeloma cells [3]): small increase in apoptosis; inhibition of HDAC6: acetylation of α-tubulin (α-tubulin): hyperacetylation of α-tubulin; cell cycle distribution (H929 myeloma cells): small reduction of cells undergoing division in S phase; cell cycle distribution (MM.1s myeloma cells [5]): small reduction of cells undergoing division in S phase
Nc1cccc2c1C(=O)N(C1CCC(=O)NC1=O)C2=O (stereo not shown) [pomalidomide, reference compound] | very well tolerated with no weight loss and no evidence of overt toxicity | relatively small change | relatively small change | small induction | −1.97 | 2.87 | small induction | number of genes with fold expression changes greater than 2 relative to vehicle: Down (H929; 24 h): 531; number of genes with fold expression changes greater than 2 relative to vehicle: Total (H929; 24 h): 979; number of genes with fold expression changes greater than 2 relative to vehicle: Up (H929; 24 h): 448; number of genes with fold expression changes greater than 2 relative to vehicle: Down (H929; 48 h): 865; number of genes with fold expression changes greater than 2 relative to vehicle: Total (H929; 48 h): 1905; number of genes with fold expression changes greater than 2 relative to vehicle: Up (H929; 48 h): 1040
